Experimental data reported in patent publication US5924973A, “Method of treating a disease process in a luminal structure” (The Trustees of Columbia University in the City of New York, priority 1996, dated 1999).

Experiments:
[1] = Biodistribution of 99mTc-MAG3 and 188Re-MAG3 in a dual label study, tail vein injection; type: in vivo, rats; conditions: ± standard deviation
Excerpt: Biodistribution Data for ^99m Tc-MAG3 and ^188 Re-MAG3 in a dual label study

[2] = Dual label excretion studies of 188Re-MAG3 and 99mTc-MAG3 in rats (urine, feces); type: in vivo; conditions: simultaneously injected in rats
Excerpt: Comparison of the Excretion of ^188 Re-MAG3 with ^99 mTc-MAG3 in rats
Dual Label Excretion Studies of ^188 Re-MAG3 and ^99m Tc-MAG3 in Rats

Structure (SMILES): O=C(O)C[N]1C(=O)C[N]2C(=O)C[N]3C(=O)C[S][99Tc-]132=[O] [^99m Tc-MAG3, reference compound]
- Biodistribution Data for ^99m Tc-MAG3, blood ([1]; 2 h): 0.18 ± 0.02 % inj. dose/g tissue
- Biodistribution Data for ^99m Tc-MAG3, blood ([1]; 6 h): 0.13 ± 0.00 % inj. dose/g tissue
- Biodistribution Data for ^99m Tc-MAG3, blood ([1]; 24 h): 0.05 ± 0.00 % inj. dose/g tissue
- Biodistribution Data for ^99m Tc-MAG3, bone ([1]; 2 h): 0.05 ± 0.02 % inj. dose/g tissue
- Biodistribution Data for ^99m Tc-MAG3, bone ([1]; 6 h): 0.03 ± 0.03 % inj. dose/g tissue
- Biodistribution Data for ^99m Tc-MAG3, bone ([1]; 24 h): 0.02 ± 0.01 % inj. dose/g tissue
- Biodistribution Data for ^99m Tc-MAG3, contents of l.i. ([1]; 2 h): 0.72 ± 0.18 % inj. dose/g tissue
- Biodistribution Data for ^99m Tc-MAG3, contents of l.i. ([1]; 6 h): 1.16 ± 0.23 % inj. dose/g tissue
- Biodistribution Data for ^99m Tc-MAG3, contents of l.i. ([1]; 24 h): 0.05 ± 0.01 % inj. dose/g tissue
- Biodistribution Data for ^99m Tc-MAG3, contents of s.i. ([1]; 2 h): 1.84 ± 2.27 % inj. dose/g tissue
- Biodistribution Data for ^99m Tc-MAG3, contents of s.i. ([1]; 6 h): 0.08 ± 0.03 % inj. dose/g tissue
- Biodistribution Data for ^99m Tc-MAG3, contents of s.i. ([1]; 24 h): 0.02 ± 0.01 % inj. dose/g tissue
- Biodistribution Data for ^99m Tc-MAG3, heart ([1]; 2 h): 0.09 ± 0.02 % inj. dose/g tissue
- Biodistribution Data for ^99m Tc-MAG3, heart ([1]; 6 h): 0.08 ± 0.01 % inj. dose/g tissue
- Biodistribution Data for ^99m Tc-MAG3, heart ([1]; 24 h): 0.04 ± 0.00 % inj. dose/g tissue
- Biodistribution Data for ^99m Tc-MAG3, kidneys ([1]; 2 h): 0.61 ± 0.11 % inj. dose/g tissue
- Biodistribution Data for ^99m Tc-MAG3, kidneys ([1]; 6 h): 0.43 ± 0.09 % inj. dose/g tissue
- Biodistribution Data for ^99m Tc-MAG3, kidneys ([1]; 24 h): 0.40 ± 0.11 % inj. dose/g tissue
- Biodistribution Data for ^99m Tc-MAG3, large intestine ([1]; 2 h): 0.14 ± 0.02 % inj. dose/g tissue
- Biodistribution Data for ^99m Tc-MAG3, large intestine ([1]; 6 h): 0.18 ± 0.00 % inj. dose/g tissue
- Biodistribution Data for ^99m Tc-MAG3, large intestine ([1]; 24 h): 0.06 ± 0.00 % inj. dose/g tissue
- Biodistribution Data for ^99m Tc-MAG3, liver ([1]; 2 h): 0.15 ± 0.02 % inj. dose/g tissue
- Biodistribution Data for ^99m Tc-MAG3, liver ([1]; 6 h): 0.15 ± 0.00 % inj. dose/g tissue
- Biodistribution Data for ^99m Tc-MAG3, liver ([1]; 24 h): 0.11 ± 0.01 % inj. dose/g tissue
- Biodistribution Data for ^99m Tc-MAG3, lung ([1]; 2 h): 0.15 ± 0.04 % inj. dose/g tissue
- Biodistribution Data for ^99m Tc-MAG3, lung ([1]; 6 h): 0.07 ± 0.02 % inj. dose/g tissue
- Biodistribution Data for ^99m Tc-MAG3, lung ([1]; 24 h): 0.04 ± 0.03 % inj. dose/g tissue
- Biodistribution Data for ^99m Tc-MAG3, small intestine ([1]; 2 h): 0.12 ± 0.04 % inj. dose/g tissue
- Biodistribution Data for ^99m Tc-MAG3, small intestine ([1]; 6 h): 0.07 ± 0.01 % inj. dose/g tissue
- Biodistribution Data for ^99m Tc-MAG3, small intestine ([1]; 24 h): 0.03 ± 0.00 % inj. dose/g tissue
- Biodistribution Data for ^99m Tc-MAG3, spleen ([1]; 2 h): 0.06 ± 0.02 % inj. dose/g tissue
- Biodistribution Data for ^99m Tc-MAG3, spleen ([1]; 6 h): 0.07 ± 0.01 % inj. dose/g tissue
- Biodistribution Data for ^99m Tc-MAG3, spleen ([1]; 24 h): 0.06 ± 0.00 % inj. dose/g tissue
- Biodistribution Data for ^99m Tc-MAG3, thyroid ([1]; 2 h): 2.41 ± 0.95 % inj. dose/g tissue
- Biodistribution Data for ^99m Tc-MAG3, thyroid ([1]; 6 h): 2.43 ± 0.24 % inj. dose/g tissue
- Biodistribution Data for ^99m Tc-MAG3, thyroid ([1]; 24 h): 0.76 ± 0.59 % inj. dose/g tissue
- distribution and elimination, 99mTc-MAG3 versus 188Re-MAG3 [2]: identical
